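Following 48 hours of exposure in 96-well plates, responses at five concentrations were used to interpolate endpoints linearly. GI50 = concentration required for 50% inhibition of growth.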 The source made the active and inactive calls. Cut-off read from the data, not from the text of the source: active = GI50 up to about 1.1 µM and inactive = higher.

Test systems include UO-31; NCI/ADR-RES; EKVX; LOX IMVI; CCRF-CEM; HT-29; HCT-116; SK-OV-3; NCI-H226; NCI-H522; ACHN; SW-620; HCT-15; SN12C; RXF 393; A498; T47D; SK-MEL-28; OVCAR-4; K562.
Assay in all cases: NCI tumour cell line growth inhibition, 48 h

On to `CSC1(SC)N2Cc3ccccc3N=C2C1(c1ccccc1)c1ccccc1`, for which the GI50 with UO-31 is 24.8 µM (inactive); with NCI/ADR-RES, 16.4 µM (inactive); in the assay on EKVX it was 6.67 µM (inactive); in the assay on LOX IMVI, 12.3 µM (inactive); in the assay with CCRF-CEM it was 8.73 µM (inactive); with HT-29 it was 11.6 µM (inactive). For the same compound, the GI50 was 6.18 µM (inactive) in the assay on HCT-116; > 54.5 µM (inactive) in the assay on SK-OV-3; > 100 µM (inactive) in the assay on NCI-H226; 5.96 µM (inactive) with NCI-H522; 14.1 µM (inactive) in the assay on ACHN; 13 µM (inactive) in the assay with SW-620. In addition, the GI50 with HCT-15 was 12.1 µM; in the assay on SN12C it was 20.5 µM (inactive); in the assay with RXF 393 it was 9.82 µM (inactive); in the assay with A498, 15.7 µM (inactive); in the assay on T47D, 4.51 µM (inactive); in the assay with SK-MEL-28 it was 38.1 µM (inactive). The GI50 in the assay with OVCAR-4 and in the assay on K562 was 10.1 µM (inactive) in each case.

With `COc1cc(OC)c(OC)cc1/C=N/N=C(\N)NO`, the GI50 in the assay on UO-31, in the assay on NCI/ADR-RES, in the assay with EKVX, with LOX IMVI, in the assay with CCRF-CEM and in the assay on HT-29 was > 100 µM (inactive) throughout. The GI50 is > 100 µM (inactive) in the assay with HCT-116; > 100 µM (inactive) in the assay on SK-OV-3; 61.4 µM (inactive) with NCI-H226; > 100 µM (inactive) in the assay with NCI-H522; 56.2 µM (inactive) in the assay with ACHN; > 100 µM (inactive) in the assay on SW-620. Further, the GI50 in the assay on HCT-15 was above 100 µM; with SN12C, > 100 µM (inactive); with RXF 393, > 100 µM (inactive); in the assay on A498, > 100 µM (inactive); in the assay on T47D it was > 100 µM (inactive); in the assay with SK-MEL-28, > 100 µM (inactive). Further, the GI50 is > 100 µM (inactive) with OVCAR-4 and 88.7 µM (inactive) in the assay with K562.

In the case of `COc1cc2c(cc1OCc1ccccc1)NC(=O)[C@@H]1CCCN1C2=O`, the GI50 with UO-31, in the assay with NCI/ADR-RES, in the assay with EKVX, with LOX IMVI, in the assay on CCRF-CEM and in the assay on HT-29 was > 100 µM (inactive) throughout. The GI50 in the assay on HCT-116, in the assay with SK-OV-3, with NCI-H226, in the assay on NCI-H522, in the assay on ACHN and in the assay on SW-620 was > 100 µM (inactive) throughout. Also, the GI50 in the assay with HCT-15 is above 100 µM; in the assay with SN12C it was > 100 µM (inactive); in the assay with RXF 393 it was 82 µM (inactive); in the assay with A498, > 100 µM (inactive); in the assay with T47D it was > 100 µM (inactive); with SK-MEL-28 it was > 100 µM (inactive). In addition, the GI50 in the assay with OVCAR-4 and in the assay with K562 was > 100 µM (inactive) each time.

Regarding `COc1cc(C2c3cc4c(cc3OC(NC3CCCCC3)C2C)OCO4)cc(OC)c1OC` (stereo not drawn), the GI50 in the assay on UO-31 was 0.515 µM (active); in the assay with NCI/ADR-RES, 0.296 µM (active); with EKVX, 4.47 µM (inactive); in the assay on LOX IMVI it was 0.617 µM (active); in the assay with CCRF-CEM it was 0.422 µM (active); with HT-29, 0.383 µM (active). The GI50 with HCT-116 was 0.47 µM (active); in the assay with SK-OV-3 it was 0.394 µM (active); in the assay with NCI-H226 it was 1.52 µM (inactive); in the assay with NCI-H522, 0.359 µM (active); in the assay on ACHN, 0.746 µM (active); with SW-620, 0.34 µM (active). Also, the GI50 in the assay on HCT-15 was 0.543 µM; with SN12C it was 0.687 µM (active); in the assay with RXF 393 it was 0.258 µM (active); with A498, 0.681 µM (active); in the assay on T47D it was 0.339 µM (active); with SK-MEL-28, 21.8 µM (inactive). Besides, the results for the GI50 in the assay on OVCAR-4 and in the assay with K562 were 0.615 µM (active) and 0.393 µM (active), respectively.

For the compound `C=CC1=C(C)c2cc3[nH]c(c4c5nc(cc6[nH]c(cc1n2)c(C=O)c6CC)C(C)=C5C(=O)[C@@H]4C(=O)OC)[C@@H](CCC(=O)O)[C@@H]3C`, the GI50 is 32.7 µM (inactive) with UO-31; > 100 µM (inactive) with NCI/ADR-RES; > 100 µM (inactive) with EKVX; > 100 µM (inactive) in the assay with LOX IMVI; 31.3 µM (inactive) in the assay with CCRF-CEM; > 100 µM (inactive) in the assay with HT-29. In addition, the GI50 in the assay with HCT-116 was 65.5 µM (inactive); in the assay on SK-OV-3, > 100 µM (inactive); in the assay with NCI-H226 it was > 100 µM (inactive); with NCI-H522, 30.8 µM (inactive); with ACHN, 46 µM (inactive); in the assay with SW-620 it was 66.5 µM (inactive). Moreover, the GI50 with HCT-15 is 35.6 µM; in the assay with SN12C, > 100 µM (inactive); in the assay with RXF 393, 1.79 µM (inactive); in the assay on A498, > 100 µM (inactive); with T47D, 20.7 µM (inactive); with SK-MEL-28, > 100 µM (inactive). Besides, the figures for the GI50 in the assay on OVCAR-4 and with K562 were > 100 µM (inactive) and 51.3 µM (inactive), respectively.

Consider `CC1=NC(C)(C)N(O)C1(C)C`, for which the GI50 with UO-31, with NCI/ADR-RES, in the assay with EKVX, with LOX IMVI, in the assay on CCRF-CEM and in the assay with HT-29 was > 100 µM (inactive) each time. The GI50 in the assay with HCT-116, in the assay on SK-OV-3, in the assay on NCI-H226, in the assay with NCI-H522, with ACHN and with SW-620 was > 100 µM (inactive) each time. Also, the GI50 was above 100 µM in the assay on HCT-15; > 100 µM (inactive) in the assay on SN12C; > 100 µM (inactive) in the assay on RXF 393; > 100 µM (inactive) in the assay with A498; > 100 µM (inactive) in the assay on T47D; > 100 µM (inactive) with SK-MEL-28. The GI50 in the assay with OVCAR-4 and in the assay on K562 was > 100 µM (inactive) each time.

With `O=C(c1nc2ccc([N+](=O)[O-])cc2nc1O)C(O)c1ccc2c(c1)OCO2` (stereo not drawn), the GI50 in the assay on UO-31 is > 100 µM (inactive); in the assay on NCI/ADR-RES, > 100 µM (inactive); in the assay with EKVX, > 100 µM (inactive); with LOX IMVI, > 67.9 µM (inactive); in the assay on CCRF-CEM, 83.9 µM (inactive); in the assay on HT-29, > 100 µM (inactive). Also, the GI50 in the assay on HCT-116 is 52.7 µM (inactive); in the assay on SK-OV-3 it was > 100 µM (inactive); with NCI-H226, > 100 µM (inactive); in the assay with NCI-H522 it was 14.8 µM (inactive); in the assay with ACHN, > 100 µM (inactive); in the assay on SW-620, > 100 µM (inactive). Besides, the GI50 is above 62.2 µM in the assay with HCT-15; > 100 µM (inactive) with SN12C; > 100 µM (inactive) in the assay with RXF 393; > 100 µM (inactive) in the assay with A498; > 100 µM (inactive) in the assay on T47D; > 100 µM (inactive) in the assay on SK-MEL-28. Besides, the GI50 with OVCAR-4 was > 100 µM (inactive); with K562, > 78.9 µM (inactive).

Turning to `OC1(CCc2ccccc2)COC(C(F)(F)F)(C(F)(F)F)C1` (stereo not drawn), the GI50 in the assay with UO-31, in the assay on NCI/ADR-RES, with EKVX, in the assay on LOX IMVI, in the assay on CCRF-CEM and in the assay on HT-29 was > 100 µM (inactive) in each case. The GI50 with HCT-116, with SK-OV-3, in the assay with NCI-H226, in the assay on NCI-H522, with ACHN and in the assay with SW-620 was > 100 µM (inactive) each time. Further, the GI50 is above 100 µM in the assay with HCT-15; > 100 µM (inactive) with SN12C; > 100 µM (inactive) in the assay with RXF 393; > 100 µM (inactive) in the assay on A498; > 100 µM (inactive) with T47D; > 100 µM (inactive) with SK-MEL-28. In addition, the GI50 in the assay with OVCAR-4 and in the assay on K562 was > 100 µM (inactive) each time.

As to `N#CNC(=N)Nc1ccc(Cl)cc1`, the GI50 in the assay on UO-31, in the assay on NCI/ADR-RES, in the assay on EKVX, in the assay on LOX IMVI, with HT-29 and with HCT-116 was > 100 µM (inactive) in each case. Further, the GI50 is > 100 µM (inactive) in the assay on SK-OV-3; 85.1 µM (inactive) in the assay with NCI-H226; > 100 µM (inactive) in the assay with NCI-H522; > 100 µM (inactive) in the assay with ACHN; > 100 µM (inactive) in the assay with SW-620; above 100 µM with HCT-15. For the same compound, the GI50 in the assay with SN12C, with RXF 393, with A498, in the assay with T47D, in the assay with SK-MEL-28 and in the assay on OVCAR-4 was > 100 µM (inactive) in each case. Also, the GI50 in the assay on K562 is > 100 µM (inactive).

As for `NS(=O)(=O)c1cc2c(cc1Cl)N=C(CCC(=O)O)NS2(=O)=O`, the GI50 with UO-31, in the assay on NCI/ADR-RES, with EKVX, in the assay with LOX IMVI, with HT-29 and with HCT-116 was > 100 µM (inactive) each time. Further, the GI50 with SK-OV-3 is > 100 µM (inactive); with NCI-H226, > 100 µM (inactive); in the assay with NCI-H522, > 100 µM (inactive); in the assay on ACHN it was > 100 µM (inactive); in the assay on SW-620, > 100 µM (inactive); with HCT-15, above 100 µM. Moreover, the GI50 in the assay with SN12C, in the assay on RXF 393, in the assay with A498, in the assay with T47D, in the assay on SK-MEL-28 and with OVCAR-4 was > 100 µM (inactive) throughout. For the same compound, the GI50 in the assay on K562 was > 100 µM (inactive).

The values are drawn from ChEMBL document CHEMBL1201862, “PubChem BioAssay data set” (2004).
